Source: patent US10945992B1, “Dosage forms of rofecoxib and related methods” (Tremeau Pharmaceuticals, Inc., priority 2019, dated 2021)
Read-outs that look alike come from different tables or passages of the source.

Experiment: TRM-201-PK-102 single-dose four-period crossover pharmacokinetic study, fasted healthy subjects
Assay type: in vivo, human
Settings: for geometric mean ratio AUC0-∞ to historical data for the 25 mg VIOXX product / geometric mean ratio Cmax to historical data for the 25 mg VIOXX product: sensitivity analysis; for AUC(0-inf) / Cmax: human, plasma, oral
Description: A Single-Dose, Open-Label, Phase 1, Four-Period Crossover Pharmacokinetic Study of TRM-201 (Rofecoxib) 12.5 mg, 17.5 mg, 20 mg and 25 mg Administered to Healthy Subjects in a Fasting State, with Comparison to Historical Pharmacokinetic Parameters of Previously Marketed Rofecoxib (“TRM-201-PK-102” or “102 PK Study”)
This was a single-center, open-label four-period crossover PK study of TRM-201. The study included 24 subjects who received TRM-201 as a single dose of 12.5 mg, 17.5 mg, 20 mg and 25 mg to assess the PK of TRM-201 in healthy volunteers under fasted conditions. Subjects were randomized to one of four treatment sequences. The PK data from the current study along with the data from the TRM-201-PK-101 study (Example 4) was used to compare to historical pharmacokinetic parameters of previously marketed rofecoxib, all in a fasted state.
In each of the four dosing periods, subjects fasted overnight for at least 10 hours before study drug dosing. While fasting, subjects had nothing to eat and only water to drink. Water was permitted as desired, except for the period between 1 hour before and 1 hour after study drug dosing (excepting as permitted for dosing). After the 2-hour PK blood sample, subjects were allowed one 250-mL cup of clear apple juice. After the 4-hour PK blood sample, subjects were served a light lunch. Following the light lunch, subjects received standardized meals according to the clinic's standard procedures that were scheduled at consistent times and at least 15 minutes before or 15 minutes after PK sampling time points. Blood was withdrawn for PK analysis at predefined time points. For each dosing period the last time point was 120 hours after dosing with study drug (Day 6). After the 120 hour PK sample, the EOP procedures was completed, subjects remained in-clinic for the in-between dose period day (Days 7, 14, and 21) and began the next dosing period starting with an overnight fast for at least 10 hours on Day −1 of the subsequent dosing period. Pharmacokinetic and safety endpoints were evaluated.
The study drug, TRM-201, was an immediate-release tablet that contained 12.5 mg rofecoxib, 17.5 mg rofecoxib, 20 mg rofecoxib or 25 mg rofecoxib. The 7.25-mm diameter tablets were off-white, round, and uncoated with no markings. TRM-201 tablets were for oral administration.
For each sample, approximately 3 mL of blood were drawn. The samples were obtained by a straight stick or via an in-dwelling intravenous (IV) catheter in a forearm vein. Additional details for the collection, processing, storage, and shipping of PK samples were provided in the study manual.
Pharmacokinetic samples will be analyzed using a validated assay for rofecoxib in human plasma. Assay results and validation details will be provided in a separate bioanalytical report. The following PK parameters for rofecoxib will be calculated as primary endpoints using standard noncompartmental methods: AUC0-∞ and Cmax. Secondary endpoints include Tmax, and t1/2. Additional PK parameters (e.g., CL/F, and Vd/F) will also be calculated using standard noncompartmental methods.
Individual plasma concentrations for rofecoxib and PK sampling time deviation data will be presented in a data listing. Plasma concentration data will be summarized by time point using the following descriptive statistics: number of subjects, arithmetic mean, SD, coefficient of variation (CV), geometric mean, natural-log-scale SD, geometric CV, median, minimum, and maximum. Individual plasma concentration versus actual time profiles were presented on both linear and semilogarithmic scales. Additionally, arithmetic mean concentration versus scheduled time profiles were presented on linear scales and geometric means on semilogarithmic scales.
The PK parameters of rofecoxib were analyzed based on the actual sampling times. […]

CS(=O)(=O)c1ccc(C2=C(c3ccccc3)C(=O)OC2)cc1 [TRM-201, 4-[4-(methylsulfonyl)phenyl]-3-phenyl-2(5H)-furanone]
arithmetic mean plasma concentration (17.5 mg, 15 minutes): 2.42 ng/mL | arithmetic mean plasma concentration (17.5 mg, 45 minutes): 93 ng/mL | geometric mean ratio AUC0-∞ to historical data for the 25 mg VIOXX product (TRM-201 17.5 mg): 0.819 | geometric mean ratio Cmax to historical data for the 25 mg VIOXX product (TRM-201 17.5 mg): 1.03 | geometric mean ratio AUC0-∞ to historical data for the 25 mg VIOXX product (TRM-201 20 mg): 0.934 | geometric mean ratio Cmax to historical data for the 25 mg VIOXX product (TRM-201 20 mg): 1.19 | AUC(0-inf) (female, 12.5 mg, 102 study, females, read-out: arithmetic mean AUC0-∞): 2240 ng·h/mL | Cmax (female, 12.5 mg, 102 study, females, read-out: arithmetic mean Cmax): 168 ng/mL | AUC(0-inf) (female, 12.5 mg, 102 study, females, read-out: geometric mean AUC0-∞): 2170 ng·h/mL | Cmax (female, 12.5 mg, 102 study, females, read-out: geometric mean Cmax): 160 ng/mL | AUC(0-inf) (female, 17.5 mg, 102 study, females, read-out: arithmetic mean AUC0-∞): 3650 ng·h/mL | Cmax (female, 17.5 mg, 102 study, females, read-out: arithmetic mean Cmax): 266 ng/mL | AUC(0-inf) (female, 17.5 mg, 102 study, females, read-out: geometric mean AUC0-∞): 3490 ng·h/mL | Cmax (female, 17.5 mg, 102 study, females, read-out: geometric mean Cmax): 251 ng/mL | AUC(0-inf) (female, 20 mg, 102 study, females, read-out: arithmetic mean AUC0-∞): 4270 ng·h/mL | Cmax (female, 20 mg, 102 study, females, read-out: arithmetic mean Cmax): 314 ng/mL | AUC(0-inf) (female, 20 mg, 102 study, females, read-out: geometric mean AUC0-∞): 4160 ng·h/mL | Cmax (female, 20 mg, 102 study, females, read-out: geometric mean Cmax): 293 ng/mL | AUC(0-inf) (female, 25 mg, 102 study, females, read-out: arithmetic mean AUC0-∞): 5090 ng·h/mL | Cmax (female, 25 mg, 102 study, females, read-out: arithmetic mean Cmax): 388 ng/mL | AUC(0-inf) (12.5 mg, 102 study only, read-out: arithmetic mean AUC0-∞): 2010 ng·h/mL | Cmax (12.5 mg, 102 study only, read-out: arithmetic mean Cmax): 151 ng/mL | AUC(0-inf) (12.5 mg, 102 study only, read-out: geometric mean AUC0-∞): 1880 ng·h/mL | Cmax (12.5 mg, 102 study only, read-out: geometric mean Cmax): 144 ng/mL | AUC(0-inf) (12.5 mg, 102 study, 18-40 years, read-out: arithmetic mean AUC0-∞): 1680 ng·h/mL | Cmax (12.5 mg, 102 study, 18-40 years, read-out: arithmetic mean Cmax): 164 ng/mL | AUC(0-inf) (12.5 mg, 102 study, 18-40 years, read-out: geometric mean AUC0-∞): 1570 ng·h/mL | Cmax (12.5 mg, 102 study, 18-40 years, read-out: geometric mean Cmax): 156 ng/mL | AUC(0-inf) (12.5 mg, 102 study, 41-52 years, read-out: arithmetic mean AUC0-∞): 2090 ng·h/mL | Cmax (12.5 mg, 102 study, 41-52 years, read-out: arithmetic mean Cmax): 140 ng/mL | AUC(0-inf) (12.5 mg, 102 study, 41-52 years, read-out: geometric mean AUC0-∞): 1880 ng·h/mL | Cmax (12.5 mg, 102 study, 41-52 years, read-out: geometric mean Cmax): 133 ng/mL | AUC(0-inf) (12.5 mg, 102 study, 53-60 years, read-out: arithmetic mean AUC0-∞): 2270 ng·h/mL | Cmax (12.5 mg, 102 study, 53-60 years, read-out: arithmetic mean Cmax): 150 ng/mL | AUC(0-inf) (12.5 mg, 102 study, 53-60 years, read-out: geometric mean AUC0-∞): 2240 ng·h/mL | Cmax (12.5 mg, 102 study, 53-60 years, read-out: geometric mean Cmax): 143 ng/mL | AUC(0-inf) (12.5 mg, 102 study, Black or African-American subjects, read-out: arithmetic mean AUC0-∞): 1660 ng·h/mL | Cmax (12.5 mg, 102 study, Black or African-American subjects, read-out: arithmetic mean Cmax): 143 ng/mL | AUC(0-inf) (12.5 mg, 102 study, Black or African-American subjects, read-out: geometric mean AUC0-∞): 1590 ng·h/mL | Cmax (12.5 mg, 102 study, Black or African-American subjects, read-out: geometric mean Cmax): 142 ng/mL | AUC(0-inf) (12.5 mg, 102 study, Hispanic or Latino subjects, read-out: arithmetic mean AUC0-∞): 2210 ng·h/mL | Cmax (12.5 mg, 102 study, Hispanic or Latino subjects, read-out: arithmetic mean Cmax): 157 ng/mL | AUC(0-inf) (12.5 mg, 102 study, Hispanic or Latino subjects, read-out: geometric mean AUC0-∞): 2090 ng·h/mL | Cmax (12.5 mg, 102 study, Hispanic or Latino subjects, read-out: geometric mean Cmax): 146 ng/mL | AUC(0-inf) (12.5 mg, 102 study, White subjects, read-out: arithmetic mean AUC0-∞): 2110 ng·h/mL | Cmax (12.5 mg, 102 study, White subjects, read-out: arithmetic mean Cmax): 153 ng/mL | AUC(0-inf) (12.5 mg, 102 study, White subjects, read-out: geometric mean AUC0-∞): 1960 ng·h/mL | Cmax (12.5 mg, 102 study, White subjects, read-out: geometric mean Cmax): 144 ng/mL | AUC(0-inf) (12.5 mg, 102 study, body weight 47-70 kg, read-out: arithmetic mean AUC0-∞): 1850 ng·h/mL | Cmax (12.5 mg, 102 study, body weight 47-70 kg, read-out: arithmetic mean Cmax): 175 ng/mL | AUC(0-inf) (12.5 mg, 102 study, body weight 47-70 kg, read-out: geometric mean AUC0-∞): 1690 ng·h/mL | Cmax (12.5 mg, 102 study, body weight 47-70 kg, read-out: geometric mean Cmax): 165 ng/mL | AUC(0-inf) (12.5 mg, 102 study, body weight 70.1-77 kg, read-out: arithmetic mean AUC0-∞): 2500 ng·h/mL | Cmax (12.5 mg, 102 study, body weight 70.1-77 kg, read-out: arithmetic mean Cmax): 155 ng/mL | AUC(0-inf) (12.5 mg, 102 study, body weight 70.1-77 kg, read-out: geometric mean AUC0-∞): 2420 ng·h/mL | Cmax (12.5 mg, 102 study, body weight 70.1-77 kg, read-out: geometric mean Cmax): 147 ng/mL | AUC(0-inf) (12.5 mg, 102 study, body weight 77.1-90 kg, read-out: arithmetic mean AUC0-∞): 1790 ng·h/mL
